Data taken from patent US20080206819A1, “Intensified Perfusion Production Method” (priority 2006, published 2008).

Legend:
[1] = tested on: Chinese hamster ovary (CHO) cell line; experiment: Effect of mode of sodium butyrate addition (bolus vs. gradual ramping) on cell viability; format: cell-based
Procedure: In order to investigate if the method used to deliver sodium butyrate into the cell culture bioreactor would effect cell viability, two modes of delivery were tested: bolus introduction of the desired sodium butyrate concentration and the gradual “ramping” to the desired sodium butyrate concentration. The growth period conditions were identical to those described above.
On Day 9, sodium butyrate was introduced into the bioreactors. In the bolus condition, 2 mM sodium butyrate (final concentration) was added to the medium and perfused into the bioreactor. […] The maximal concentration of sodium butyrate was maintained for the rest of the production run. Cell viability was determined by pulling samples from each bioreactor and trypan blue staining for live/dead cells. After the bolus addition of 2 mM sodium butyrate, the cell viability started to decline (after day 9). The bioreactor for the bolus condition was stopped on day 19 after the viability dropped below 50%. In contrast, the gradual ramping of sodium butyrate from day 9 to day 14 maintained high cell viability (over 85%).

[2] = tested on: CHO (Chinese Hamster Ovary) cell-derived cell line; experiment: Cell viability and cell density, Example 5 (RaMP); format: cell-based
Procedure: (§1) Cells were seeded at 5×10^5 cells/ml and were allowed to grow in the bioreactor for 6 days before the first harvest of recombinant protein on day 7. Conditions for this growth period are similar to those described in Example 1 above. Cells were grown in RBM12.1 media with a perfusion rate of 1 to 1.5 v/day. 1 mM sodium butyrate (final concentration) was added to perfusion medium and was perfused into the bioreactor on day 8. […] 2 mM sodium butyrate (final concentration) was added to the perfusion media and was perfused into the bioreactor on day 11. Cell viability was monitored daily by pulling samples from the bioreactor and trypan blue live/dead staining. Over the production run, the cell density reached upwards of 4.5×10^7 cells/ml. Using the RaMP method, the cell viability remained above 85% viable cells even with the sustained concentration of 2 mM sodium butyrate in the media. The average daily recombinant protein production reached over 0.6 g/L/day.

[3] = tested on: CHO (Chinese Hamster Ovary) cell-derived cell line; experiment: Average daily recombinant protein production using RaMP, Example 5; format: cell-based
Procedure: Samples of harvested media were taken from the daily harvest and frozen. At the end of the production run, the frozen daily samples were tested using an anti-IgG (recognizing only intact IgG) ELISA assay in order to determine the protein yields. FIG. 1 is a graphical representation of the average daily yield of recombinant protein from both traditional perfusion and RaMP methods.
as §1

recombinant CHO cells [4] = conditions: perfusion culture; end of the production run, in most cases; cited from earlier work
recombinant CHO cells [5] = conditions: sodium butyrate added in fluidized bed bioreactor; cited from earlier work

SMILES: CCCC(=O)[O-].[Na+] [sodium butyrate]
- % viable cells (bolus) ([1]; bolus 2 mM from Day 9, day 10 in culture): 76%
- % viable cells (bolus) ([1]; bolus 2 mM from Day 9, day 11 in culture): 73%
- % viable cells (bolus) ([1]; bolus 2 mM from Day 9, day 12 in culture): 76%
- % viable cells (bolus) ([1]; bolus 2 mM from Day 9, day 13 in culture): 72%
- % viable cells (bolus) ([1]; bolus 2 mM from Day 9, day 14 in culture): 72%
- % viable cells (bolus) ([1]; bolus 2 mM from Day 9, day 15 in culture): 84%
- % viable cells (bolus) ([1]; bolus 2 mM from Day 9, day 16 in culture): 79%
- % viable cells (bolus) ([1]; bolus 2 mM from Day 9, day 17 in culture): 76%
- % viable cells (bolus) ([1]; bolus 2 mM from Day 9, day 18 in culture): 80%
- % viable cells (bolus) ([1]; bolus 2 mM from Day 9, day 19 in culture): 44%
- % viable cells (bolus) ([1]; bolus 2 mM sodium butyrate introduced Day 9, day 9 in culture): 89%
- cell viability ([1]; bolus 2 mM sodium butyrate, day 19, bioreactor stopped): below 50%
- % viable cells (RaMP) ([1]; gradual ramping from 0.5 mM Day 9 to maximal by Day 14, day 10 in culture): 97%
- % viable cells (RaMP) ([1]; gradual ramping from 0.5 mM Day 9 to maximal by Day 14, day 11 in culture): 97.6%
- % viable cells (RaMP) ([1]; gradual ramping from 0.5 mM Day 9 to maximal by Day 14, day 12 in culture): 96.4%
- % viable cells (RaMP) ([1]; gradual ramping from 0.5 mM Day 9 to maximal by Day 14, day 13 in culture): 97.1%
- % viable cells (RaMP) ([1]; gradual ramping from 0.5 mM Day 9 to maximal by Day 14, day 14 in culture): 95.7%
- cell viability ([1]; gradual ramping of sodium butyrate from day 9 to day 14): over 85%
- % viable cells (RaMP) ([1]; maximal concentration maintained after ramping, day 15 in culture): 96.7%
- % viable cells (RaMP) ([1]; maximal concentration maintained after ramping, day 16 in culture): 97.2%
- % viable cells (RaMP) ([1]; maximal concentration maintained after ramping, day 17 in culture): 96.4%
- % viable cells (RaMP) ([1]; maximal concentration maintained after ramping, day 18 in culture): 97%
- % viable cells (RaMP) ([1]; maximal concentration maintained after ramping, day 19 in culture): 96.9%
- % viable cells (RaMP) ([1]; maximal concentration maintained after ramping, day 20 in culture): 95.8%
- % viable cells (RaMP) ([1]; maximal concentration maintained after ramping, day 21 in culture): 95.4%
- % viable cells (RaMP) ([1]; maximal concentration maintained after ramping, day 22 in culture): 98.7%
- % viable cells (RaMP) ([1]; maximal concentration maintained after ramping, day 23 in culture): 90.6%
- % viable cells (RaMP) ([1]; maximal concentration maintained after ramping, day 24 in culture): 89.7%
- % viable cells (RaMP) ([1]; maximal concentration maintained after ramping, day 25 in culture): 88.8%
- % viable cells (RaMP) ([1]; sodium butyrate from 0.5 mM on Day 9, gradually increased to maximal concentration by Day 14, day 9 in culture): 97.4%
- cell density ([2]; RaMP, 1 mM then 2 mM sodium butyrate, over the production run): > 4.5×10^7 cells/ml
- cell viability ([2]; after 1 mM sodium butyrate perfused on day 8): ≥ 85%
- cell viability ([2]; sustained concentration of 2 mM sodium butyrate in the media (from day 11)): above 85%
- average daily recombinant protein production ([3]; 1 mM then 2 mM sodium butyrate, reached): over 0.6 g/L/day
- Average total production ([3]; sodium butyrate 1 mM, day 8 in culture): 102 mg/L/day
- Average total production ([3]; sodium butyrate 1 mM, day 9 in culture): 159 mg/L/day
- Average total production ([3]; sodium butyrate 1 mM, day 10 in culture): 343 mg/L/day
- Average total production ([3]; sodium butyrate 2 mM, day 11 in culture): 381 mg/L/day
- Average total production ([3]; sodium butyrate 2 mM, day 12 in culture): 332 mg/L/day
- Average total production ([3]; sodium butyrate 2 mM, day 13 in culture): 590 mg/L/day
- Average total production ([3]; sodium butyrate 2 mM, day 14 in culture): 498 mg/L/day
- Average total production ([3]; sodium butyrate 2 mM, day 15 in culture): 577 mg/L/day
- Average total production ([3]; sodium butyrate 2 mM, day 16 in culture): 549 mg/L/day
- Average total production ([3]; sodium butyrate 2 mM, day 17 in culture): 526 mg/L/day
- Average total production ([3]; sodium butyrate 2 mM, day 18 in culture): 684 mg/L/day
- cell viability (recombinant CHO cells [4]): less than 45%
- cell growth and cell concentration (recombinant CHO cells [5]): the cells stopped growing and cell concentration declined
